Reference: patent US10174016B2 (BAYER AKTIENGESELLSCHAFT, priority 2014, dated 2019)
Where two headings read alike, the source gives them in different places.

Assays:
human P2X3 receptor = human P2X3 receptor (Homo sapiens (Human), UniProt P56373); test: Intracellular calcium measurement (FLIPR, Fluo-4) of antagonist activity at human P2X3 receptors; type: cell-based; conditions: read-out: hP2X3 IC50
Procedure, shortened: (§1)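 Antagonism quantified from peak calcium fluorescence (Fluo-4, FLIPR, 90 sec read) evoked by EC80 α,β-Me-ATP, after a 30 min, 37° C. compound pretreatment in 1% DMSO. Human P2X3- or P2X2/3-expressing cells used; triplicate means fitted for IC50, percent maximal inhibition and Hill coefficient.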

human P2X2/3 receptor = human P2X2/3 receptor (Homo sapiens (Human), UniProt P56373+Q9UBL9); test: Intracellular calcium measurement (FLIPR, Fluo-4) of antagonist activity at human P2X2/3 receptors; type: cell-based; conditions: human P2X2/3, FLIPR calcium assay, agonist α,β-Me-ATP; read-out: hP2X2/3 IC50
Sequence of human P2X2/3 receptor (P56373 whole entry): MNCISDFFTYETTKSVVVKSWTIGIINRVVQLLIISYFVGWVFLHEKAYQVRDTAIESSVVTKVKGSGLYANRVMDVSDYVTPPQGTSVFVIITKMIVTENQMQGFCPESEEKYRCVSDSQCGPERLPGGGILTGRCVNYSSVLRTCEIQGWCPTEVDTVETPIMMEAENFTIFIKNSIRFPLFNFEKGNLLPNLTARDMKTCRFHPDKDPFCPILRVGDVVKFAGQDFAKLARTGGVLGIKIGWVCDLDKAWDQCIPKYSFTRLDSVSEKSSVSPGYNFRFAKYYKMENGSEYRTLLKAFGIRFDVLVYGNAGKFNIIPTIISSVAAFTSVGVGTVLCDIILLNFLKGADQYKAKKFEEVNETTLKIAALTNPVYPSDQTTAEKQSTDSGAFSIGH
Sequence of human P2X2/3 receptor (Q9UBL9 whole entry): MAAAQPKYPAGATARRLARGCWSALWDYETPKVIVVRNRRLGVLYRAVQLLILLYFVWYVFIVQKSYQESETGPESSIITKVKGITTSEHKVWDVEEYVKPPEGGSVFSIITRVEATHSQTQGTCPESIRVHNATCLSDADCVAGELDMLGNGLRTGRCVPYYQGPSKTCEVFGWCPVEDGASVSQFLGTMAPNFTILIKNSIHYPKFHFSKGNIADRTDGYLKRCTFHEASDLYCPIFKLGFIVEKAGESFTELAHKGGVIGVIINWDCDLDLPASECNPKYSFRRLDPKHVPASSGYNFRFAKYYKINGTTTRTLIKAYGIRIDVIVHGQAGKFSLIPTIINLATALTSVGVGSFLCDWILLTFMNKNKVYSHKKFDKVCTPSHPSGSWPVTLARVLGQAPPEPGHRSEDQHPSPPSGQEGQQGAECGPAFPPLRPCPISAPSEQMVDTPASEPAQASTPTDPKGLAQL
Procedure, shortened: as §1

[1] = human P2X3, FLIPR calcium assay, agonist α,β-Me-ATP

Sequence of human P2X3 receptor (P56373 whole entry): as the sequence (P56373 whole entry) above

IC50 (human P2X3 receptor; [1]) [nM] | IC50 (human P2X2/3 receptor) [nM] | Structure (SMILES) | IC50 (human P2X3 receptor) [nM]
101 | 1060 | CC(C)c1cnc(-c2cc(O[C@@H]3CCOC3)cc(C(=O)N[C@H](C)c3ccc(C(F)(F)F)nn3)c2)s1 [Example 294, 3-[5-(propan-2-yl)-1,3-thiazol-2-yl]-5-[(3R)-tetrahydrofuran-3-yloxy]-N-{(1R)-1-[6-(trifluoromethyl)pyridazin-3-yl]ethyl}benzamide] | –
56 | 933 | C[C@@H](NC(=O)c1cc(OC[C@@H]2CCOC2)cc(-c2ncc(C3CCC3)s2)c1)c1ccc(C(F)(F)F)nn1 [Example 297, 3-(5-cyclobutyl-1,3-thiazol-2-yl)-5-[(3R)-tetrahydrofuran-3-ylmethoxy]-N-{(1R)-1-[6-(trifluoromethyl)pyridazin-3-yl]ethyl}benzamide] | –
62 | 781 | CC(C)c1cnc(-c2cc(OC[C@H]3CCOC3)cc(C(=O)N[C@H](C)c3ccc(C(F)(F)F)nn3)c2)s1 [Example 298, 3-[5-(propan-2-yl)-1,3-thiazol-2-yl]-5-[(3S)-tetrahydrofuran-3-ylmethoxy]-N-{(1R)-1-[6-(trifluoromethyl)pyridazin-3-yl]ethyl}benzamide] | –
6 | 145 | CCc1cnc(-c2cc(OC[C@@H]3CCCO3)cc(C(=O)N[C@H](C)c3ccc(C(F)(F)F)nn3)c2)s1 [Example 302, 3-(5-ethyl-1,3-thiazol-2-yl)-5-[(2S)-tetrahydrofuran-2-ylmethoxy]-N-{(1R)-1-[6-(trifluoromethyl)pyridazin-3-yl]ethyl}benzamide] | –
9 | 44 | Cc1ccc([C@@H](C)NC(=O)c2cc(OC3CCN(CC(F)F)CC3)cc(-c3ncc(C)s3)c2)nn1 [Example 305, 3-{[1-(2,2-difluoroethyl)piperidin-4-yl]oxy}-N-[(1R)-1-(6-methylpyridazin-3-yl)ethyl]-5-(5-methyl-1,3-thiazol-2-yl)benzamide] | –
42 | 464 | Cc1cnc([C@@H](C)NC(=O)c2cc(OC3CCN(CC(F)F)CC3)cc(-c3ncc(C)s3)c2)cn1 [Example 306, 3-{[1-(2,2-difluoroethyl)piperidin-4-yl]oxy}-N-[(1R)-1-(5-methylpyrazin-2-yl)ethyl]-5-(5-methyl-1,3-thiazol-2-yl)benzamide] | –
8 | 70 | Cc1ncc([C@@H](C)NC(=O)c2cc(OC3CCN(CC(F)F)CC3)cc(-c3ncc(C)s3)c2)cn1 [Example 309, 3-{[1-(2,2-difluoroethyl)piperidin-4-yl]oxy}-N-[(1R)-1-(2-methylpyrimidin-5-yl)ethyl]-5-(5-methyl-1,3-thiazol-2-yl)benzamide] | –
8 | 35 | Cc1ccc([C@@H](C)NC(=O)c2cc(OC3CCN(CC(F)(F)F)CC3)cc(-c3ncc(C)s3)c2)nn1 [Example 311, N-[(1R)-1-(6-methylpyridazin-3-yl)ethyl]-3-(5-methyl-1,3-thiazol-2-yl)-5-{[1-(2,2,2-trifluoroethyl)piperidin-4-yl]oxy}benzamide] | –
9 | 83 | Cc1cnc(-c2cc(OC3CCN(CC(F)(F)F)CC3)cc(C(=O)N[C@H](C)c3ccc(C(F)(F)F)nn3)c2)s1 [Example 312, 3-(5-methyl-1,3-thiazol-2-yl)-5-{[1-(2,2,2-trifluoroethyl)piperidin-4-yl]oxy}-N-{(1R)-1-[6-(trifluoromethyl)pyridazin-3-yl]ethyl}benzamide] | –
11 | 200 | Cc1cnc([C@@H](C)NC(=O)c2cc(OC3CCN(CC(F)(F)F)CC3)cc(-c3ncc(C)s3)c2)cn1 [Example 313, N-[(1R)-1-(5-methylpyrazin-2-yl)ethyl]-3-(5-methyl-1,3-thiazol-2-yl)-5-{[1-(2,2,2-trifluoroethyl)piperidin-4-yl]oxy}benzamide] | –
8 | 160 | Cc1ncc([C@@H](C)NC(=O)c2cc(OC3CCN(CC(F)(F)F)CC3)cc(-c3ncc(C)s3)c2)cn1 [Example 315, N-[(1R)-1-(2-methylpyrimidin-5-yl)ethyl]-3-(5-methyl-1,3-thiazol-2-yl)-5-{[1-(2,2,2-trifluoroethyl)piperidin-4-yl]oxy}benzamide] | –
45 | 952 | Cc1ccc([C@@H](C)NC(=O)c2cc(O[C@@H]3CCOC3)cc(-c3ncc(Cl)s3)c2)nn1 [Example 317, 3-(5-chloro-1,3-thiazol-2-yl)-N-[(1R)-1-(6-methylpyridazin-3-yl)ethyl]-5-[(3R)-tetrahydrofuran-3-yloxy]benzamide] | –
32 | 476 | C[C@@H](NC(=O)c1cc(O[C@@H]2CCOC2)cc(-c2ncc(Cl)s2)c1)c1ccc(C(F)(F)F)nn1 [Example 318, 3-(5-chloro-1,3-thiazol-2-yl)-5-[(3R)-tetrahydrofuran-3-yloxy]-N-{(1R)-1-[6-(trifluoromethyl)pyridazin-3-yl]ethyl}benzamide] | –
33 | 627 | C[C@@H](NC(=O)c1cc(O[C@H]2CCOC2)cc(-c2ncc(Cl)s2)c1)c1ccc(C(F)(F)F)nn1 [Example 320, 3-(5-chloro-1,3-thiazol-2-yl)-5-[(3S)-tetrahydrofuran-3-yloxy]-N-{(1R)-1-[6-(trifluoromethyl)pyridazin-3-yl]ethyl}benzamide] | –
49 | 498 | Cc1ccc([C@@H](C)NC(=O)c2cc(O[C@H]3CCOC3)cc(-c3ncc(Cl)s3)c2)nn1 [Example 322, 3-(5-chloro-1,3-thiazol-2-yl)-N-[(1R)-1-(6-methylpyridazin-3-yl)ethyl]-5-[(3S)-tetrahydrofuran-3-yloxy]benzamide] | –
25 | 411 | C[C@@H](NC(=O)c1cc(OC[C@H]2CCOC2)cc(-c2ncc(Cl)s2)c1)c1cnc(C(F)(F)F)nc1 [Example 323, 3-(5-chloro-1,3-thiazol-2-yl)-5-[(3S)-tetrahydrofuran-3-ylmethoxy]-N-{(1R)-1-[2-(trifluoromethyl)pyrimidin-5-yl]ethyl}benzamide] | –
26 | 235 | Cc1ccc([C@@H](C)NC(=O)c2cc(OC3CCOCC3)cc(-c3ncc(Cl)s3)c2)nn1 [Example 325, 3-(5-chloro-1,3-thiazol-2-yl)-N-[(1R)-1-(6-methylpyridazin-3-yl)ethyl]-5-(tetrahydro-2H-pyran-4-yloxy)benzamide] | –
21 | 378 | C[C@@H](NC(=O)c1cc(OC2CCOCC2)cc(-c2ncc(Cl)s2)c1)c1ccc(C(F)(F)F)nn1 [Example 326, 3-(5-chloro-1,3-thiazol-2-yl)-5-(tetrahydro-2H-pyran-4-yloxy)-N-{(1R)-1-[6-(trifluoromethyl)pyridazin-3-yl]ethyl}benzamide] | –
10 | 239 | Cc1cnc(-c2cc(OCC3(C)COC3)cc(C(=O)N[C@H](C)c3cnc(C(F)(F)F)nc3)c2)s1 [Example 327, 3-[(3-methyloxetan-3-yl)methoxy]-5-(5-methyl-1,3-thiazol-2-yl)-N-{(1R)-1-[2-(trifluoromethyl)pyrimidin-5-yl]ethyl}benzamide] | –

Structure (SMILES) | IC50 (human P2X3 receptor; [1]) [nM] | IC50 (human P2X2/3 receptor) [nM] | IC50 (human P2X3 receptor) [nM]
CC(C)c1cnc(-c2cc(OC[C@H]3CCCO3)cc(C(=O)N[C@H](C)c3ccc(C(F)(F)F)nn3)c2)s1 [Example 299, 3-[5-(propan-2-yl)-1,3-thiazol-2-yl]-5-[(2R)-tetrahydrofuran-2-ylmethoxy]-N-{(1R)-1-[6-(trifluoromethyl)pyridazin-3-yl]ethyl}benzamide] | 37 | 575 | –
C[C@@H](NC(=O)c1cc(OC[C@@H]2CCCO2)cc(-c2ncc(C3CCC3)s2)c1)c1ccc(C(F)(F)F)nn1 [Example 300, 3-(5-cyclobutyl-1,3-thiazol-2-yl)-5-[(2S)-tetrahydrofuran-2-ylmethoxy]-N-{(1R)-1-[6-(trifluoromethyl)pyridazin-3-yl]ethyl}benzamide] | 78 | 820 | –
CC(C)c1cnc(-c2cc(OC[C@@H]3CCCO3)cc(C(=O)N[C@H](C)c3ccc(C(F)(F)F)nn3)c2)s1 [Example 301, 3-[5-(propan-2-yl)-1,3-thiazol-2-yl]-5-[(2S)-tetrahydrofuran-2-ylmethoxy]-N-{(1R)-1-[6-(trifluoromethyl)pyridazin-3-yl]ethyl}benzamide] | 91 | 1710 | –
Cc1cnc(-c2cc(OC3CCN(CC(F)F)CC3)cc(C(=O)N[C@H](C)c3cnc(C(F)(F)F)nc3)c2)s1 [Example 304] | – | 27 | 7
Cc1ccc(CNC(=O)c2cc(OC3CCN(CC(F)F)CC3)cc(-c3ncc(C)s3)c2)nn1 [Example 307, 3-{[1-(2,2-difluoroethyl)piperidin-4-yl]oxy}-N-[(6-methylpyridazin-3-yl)methyl]-5-(5-methyl-1,3-thiazol-2-yl)benzamide] | – | 103 | 16
Cc1cnc(-c2cc(OC3CCN(CC(F)F)CC3)cc(C(=O)N[C@@H](C)c3cnc(C(F)(F)F)nc3)c2)s1 [Example 308, 3-{[1-(2,2-difluoroethyl)piperidin-4-yl]oxy}-5-(5-methyl-1,3-thiazol-2-yl)-N-{(1S)-1-[2-(trifluoromethyl)pyrimidin-5-yl]ethyl}benzamide] | 153 | 2590 | –
Cc1ccc(CNC(=O)c2cc(OC3CCN(CC(F)(F)F)CC3)cc(-c3ncc(C)s3)c2)nn1 [Example 314, N-[(6-methylpyridazin-3-yl)methyl]-3-(5-methyl-1,3-thiazol-2-yl)-5-{[1-(2,2,2-trifluoroethyl)piperidin-4-yl]oxy}benzamide] | – | 192 | 8
Cc1ccc([C@@H](C)NC(=O)c2cc(OC[C@H]3CCOC3)cc(-c3ncc(Cl)s3)c2)nn1 [Example 316, 3-(5-chloro-1,3-thiazol-2-yl)-N-[(1R)-1-(6-methylpyridazin-3-yl)ethyl]-5-[(3S)-tetrahydrofuran-3-ylmethoxy]benzamide] | – | 250 | 21
